In ChEMBL document CHEMBL3763063, “Novel 4-anilinoquinazoline derivatives featuring an 1-adamantyl moiety as potent EGFR inhibitors with enhanced activity against NSCLC cell lines” (Eur J Med Chem, 2016):
pIC50: −log10 of the molar value. The source made the active and inactive calls. The rule behind the calls is not given here.

Assays:
[1] = biological target: Epidermal growth factor receptor (Homo sapiens, UniProt P00533);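 also: recombinant wild-type human EGFR cytoplasmic domain, inhibition measured as decrease in autophosphorylation via Z'-Lyte readout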
Description: Inhibition of wild type recombinant human EGFR assessed as reduction in autophosphorylation of cytoplasmic domain by Z'-Lyte assay

[2] = biological target: Epidermal growth factor receptor (Homo sapiens, UniProt P00533, L858R/T790M); format: protein assay;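 also: recombinant enzyme, cytoplasmic domain autophosphorylation read out by Z'-Lyte assay, IC50 reflects decrease in autophosphorylation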
Description: Inhibition of recombinant human EGFR L858R/T790M double mutant assessed as reduction in autophosphorylation of cytoplasmic domain by Z'-Lyte assay

A-431 = test: cells; format: functional, cell-based; conditions: Homo sapiens, A-431, 72 h;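 also: loss of viability in A431 cells carrying wild-type EGFR, read out by MTT, antiproliferative effect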
Description: Antiproliferative activity against human A431 cells harboring wild type EGFR assessed as reduction in cell viability after 72 hrs by MTT assay

[3] = Antiproliferative activity against human HCC827 cells harboring EGFR E746 to A750 deletion mutant assessed as reduction in cell viability after 72 hrs by MTT assay; format: functional, cell-based; conditions: HCC827, 72 h
NCI-H1975 [4] = test: cells; format: functional, cell-based; conditions: Homo sapiens, NCI-H1975, 72 h
Description: Antiproliferative activity against human NCI-H1975 cells harboring EGFR L858R/T790M double mutant assessed as reduction in cell viability after 72 hrs by MTT assay

A549 = test: cells; format: functional, cell-based; conditions: Homo sapiens, A549, 72 h
Description: Antiproliferative activity against human A549 cells harboring K-ras mutation assessed as reduction in cell viability after 72 hrs by MTT assay

MCF7 = test: cells; format: functional, cell-based; conditions: Homo sapiens, MCF7, 72 h;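 also: antiproliferative effect measured by MTT assay in EGFR-overexpressing MCF7 cells, with IC50 based on the drop in viable cells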
Description: Antiproliferative activity against human MCF7 cells overexpressing EGFR assessed as reduction in cell viability after 72 hrs by MTT assay

[5] = system: Epidermal growth factor receptor (Homo sapiens), P00533 [L858R,T790M]; test: Potency index, ratio of gefitinib IC50 to compound IC50 for inhibition of recombinant human EGFR L858R/T790M double mutant; format: protein assay
[6] = system: Epidermal growth factor receptor (Homo sapiens), P00533 [L858R,T790M]; test: Inhibition of EGFR L858R/T790M double mutant autophosphorylation in human NCI-H1975 cells after 12 hrs by Western blot analysis; format: cell-based
NCI-H1975 [7] = test: Effect on total EGFR L858R/T790M double mutant level in human NCI-H1975 cells at 0.1 to 10 uM after 12 hrs by Western blot analysis; format: ADME, cell-based; conditions: nci-h1975, 12 h
NCI-H1975 [8] = test: Effect on total AKT level in human NCI-H1975 cells at 0.1 to 10 uM after 12 hrs by Western blot analysis; format: ADME, cell-based; conditions: nci-h1975, 12 h
NCI-H1975 [9] = test: Effect on total beta-actin level in human NCI-H1975 cells at 0.1 to 10 uM after 12 hrs by Western blot analysis; format: ADME, cell-based; conditions: nci-h1975, 12 h
[10] = system: Epidermal growth factor receptor (Homo sapiens), P00533 [L858R,T790M]; conditions: NCI-H1975, at 1 µM
Description: Inhibition of EGFR L858R/T790M double mutant in human NCI-H1975 cells assessed as reduction in phosphorylated AKT level at 1 uM after 12 hrs by Western blot analysis

NCI-H1975 [11] = test: Potency index, ratio of gefitinib IC50 to compound IC50 for antiproliferative activity against human NCI-H1975 cells harboring EGFR L858R/T790M double mutant; format: functional

SMILES	pIC50 [1]	pIC50 [2]	pIC50 (A-431)	pIC50 (NCI-H1975 [4])	pIC50 (A549)	pIC50 (MCF7)	Ratio IC50 [5]	inhibition [6]	inhibition [10]	pIC50 [3]	Activity (NCI-H1975 [7])	Activity (NCI-H1975 [8])	Activity (NCI-H1975 [9])	Ratio IC50 (NCI-H1975 [11])
COc1cc2ncnc(Nc3cc(C(=O)NC45CC6CC(CC(C6)C4)C5)ccc3C)c2cc1OCCCN1CCOCC1	7.81	7.49	5.24	4.77	5.17	5.04				7.85				
COCCOc1cc2ncnc(Nc3ccc(NC(=O)C45CC6CC(CC(C6)C4)C5)c(C)c3)c2cc1OCCOC	8.53	7.18	5.25	4.67	5.10	5.08				7.64				
COCCOc1cc2ncnc(Nc3ccc(C(=O)NC45CC6CC(CC(C6)C4)C5)cc3)c2cc1OCCOC	8.02	8.22	5.99	4.91	5.47	5.90	160	Dose-dependent effect	Active	7.42	Non-toxic	Non-toxic	Non-toxic	
COCCOc1cc2ncnc(Nc3ccc(NC(=O)C45CC6CC(CC(C6)C4)C5)cc3C)c2cc1OCCOC	8.34	7.78	5.33	4.78	5.34	5.27				7.60				
COc1cc2ncnc(Nc3cccc(NC(=O)C45CC6CC(CC(C6)C4)C5)c3)c2cc1OCCCN1CCOCC1	8.51	6.80	4.80	4.44	5.05	5.00				7.46				
COc1cc2ncnc(Nc3cccc(C(=O)NC45CC6CC(CC(C6)C4)C5)c3)c2cc1OCCCN1CCOCC1	8.95	7.94	4.98	4.51	4.94	4.63				7.70				
COCCOc1cc2ncnc(Nc3ccc(NC(=O)C45CC6CC(CC(C6)C4)C5)c(C#N)c3)c2cc1OCCOC	8.30	7.98	5.35	4.42	5.11	5.25				< 7.40				

Continued by rising pIC50 [1], values first:

pIC50 [1]	pIC50 [2]	pIC50 (A-431)	pIC50 (NCI-H1975 [4])	pIC50 (A549)	pIC50 (MCF7)	Ratio IC50 [5]	inhibition [6]	inhibition [10]	SMILES	pIC50 [3]	Activity (NCI-H1975 [7])	Activity (NCI-H1975 [8])	Activity (NCI-H1975 [9])	Ratio IC50 (NCI-H1975 [11])
8.19	8.34	5.69	5.23	5.58	5.26	160	Dose-dependent effect	Active	COc1cc2ncnc(Nc3ccc(C(=O)NC45CC6CC(CC(C6)C4)C5)c(Cl)c3)c2cc1OCCCN1CCOCC1	8.05	Non-toxic	Non-toxic	Non-toxic	5
8.23	7.97	5.18	4.48	5.12	5.28				COCCOc1cc2ncnc(Nc3ccc(NC(=O)C45CC6CC(CC(C6)C4)C5)c(OC)c3)c2cc1OCCOC	< 7.40				
8.33	8.24	5.47	4.58	5.23	4.94	160			COc1cc2ncnc(Nc3ccc(C(=O)NC45CC6CC(CC(C6)C4)C5)c(C#N)c3)c2cc1OCCCN1CCOCC1	7.70				
8.70	8.27	4.55	< 4.40	5.21	4.92	160			COc1cc2ncnc(Nc3ccc(C(=O)NC45CC6CC(CC(C6)C4)C5)cc3)c2cc1OCCCN1CCOCC1	8.05				
8.79	7.84	5.02	4.73	5.40	4.95				COCCOc1cc2ncnc(Nc3cccc(NC(=O)C45CC6CC(CC(C6)C4)C5)c3)c2cc1OCCOC	7.52				
